The numbers were not newly measured in patent US6001882A (priority 1997, dated 1999), which cites them from elsewhere.

One series relates to psoriasis. As to conditions: systemic, with long wavelength ultraviolet light; cited from earlier work.
The conditions of series [1]: cited from earlier work.

For `C=Cc1c2[n-]c(c1C)/C=c1\[n-]/c(c(C)c1C=C)=C\c1[n-]c(c(CCC(=O)O)c1C)/C=c1\[n-]c(c(C)c1CCC(=O)O)=C2.[Sn+4]` [tin-protoporphyrin], the amelioration of psoriasis result with psoriasis is given as “effects amelioration of psoriasis in psoriatic patients”.
As to `Cc1cc(O)c2c(=O)c3c(O)cc(O)c4c5c(O)cc(O)c6c(=O)c7c(O)cc(C)cc7c(c65)c(c2c1)c34` [protohypericin], the “conversion on exposure to visible light” value in series [1] was “converted to hypericin upon exposure to visible light”.
